Measurements as given in patent EP1366052B1 (priority 2001, dated 2002).
Entries after “also recorded” stand apart in the source; their conditions may differ.

Assays:
Sprague-Dawley rats = details: rat, in vivo
male Sprague-Dawley rats = details: rat, in vivo
weanling pigs = details: pig, in vivo

SMILES | duration of action (Sprague-Dawley rats) | induction of fed pattern of gut motility (Sprague-Dawley rats) | onset time after administration (Sprague-Dawley rats) | food consumption (male Sprague-Dawley rats) | food consumption and weight gain (male Sprague-Dawley rats) | weight gain (male Sprague-Dawley rats) | emesis (weanling pigs) | food consumption in the AM meal following the AM treat (weanling pigs) | persistence of the effect on food consumption (weanling pigs) | delay before effect on the fasting pattern (Sprague-Dawley rats) | effect on fasting pattern of gut motility (Sprague-Dawley rats)
C[C@@H]1C[C@H]2O[C@@H]3[C@H](O)C[C@](C)([C@]24COC(c2ccccc2)O[C@@H]4C1=O)[C@@]3(C)O (stereo partly drawn) [EN139522, 7α,15-benzylidene-9α,12β-dimethyl-3α,12α-dihydroxytrichothecan-8-one] | 35 min | induce a classic fed pattern | 20 s |  |  |  |  |  |  |  | 
CC1=C[C@H]2O[C@@H]3[C@H](O)C[C@](C)([C@@]2(CO)[C@H](O)C1=O)[C@]31CO1 [DON, 3α,7α,15-trihydroxy-12,13-epoxy-trichothec-9-en-8-one] |  | induced the fed pattern |  | decrease | immediate and sustained reduction; also recorded: concentration-dependant reduction | decrease | some emesis | decreased food consumption | wore off by the next meal |  | 
C[C@@H]1C[C@H]2O[C@@H]3[C@H](O)C[C@](C)([C@]24COC(c2ccccc2)O[C@@H]4[C@@H]1O)[C@@]3(C)O (stereo partly drawn) [EN139502, 7α,15-benzylidene-9α,12β-dimethyltrichothecan-3α,8α,12α-triol] |  | did not induce the fed pattern |  |  |  |  |  |  |  | approximately 5 min | intensify or enhance the fasting pattern
